Data as given in patent US8962527B2, “Process for preparation of herbicidal salts” (Nufarm Australia Limited, priority 2010, dated 2015).

Tests used:
[1] = pH of 3% solution of the finished product in H2O; assay type: physicochemical; details: 3% solution in H2O
Method: The reaction was monitored by addition of small amounts of reaction mixture to water. When the mixture provides a pH of 8 and remains at this pH the reaction was considered complete. The product was filtered and dried at temperature not greater than 60° C. The mother liquor is made up with fresh MTBE, ready for the next batch.

[2] = Hygroscopicity of the finished product; assay type: physicochemical; details: dried solid product

| SMILES | pH [1] | hygroscopicity of product [2] |
| --- | --- | --- |
| CNC.Cc1cc(Cl)ccc1OCC(=O)O [Example 1, MCPA/DMA Salt] | 5.5-6.5 | extremely hydroscopic |
| CNC.COc1c(Cl)ccc(Cl)c1C(=O)O [Example 2, Dicamba/DMA Salt] | 5.5-6.5 | extremely hydroscopic |
| CNC.Cc1cc(Cl)ccc1OC(C)C(=O)O (centres unmarked) [Example 3, MCPP/DMA Salt] | 5.8-6.3 | extremely hydroscopic |
| CC(Oc1ccc(Cl)cc1Cl)C(=O)O.CNC (centres unmarked) [Example 4, 2,4-DP/DMA Salt] | 5.8-6.5 | not hydroscopic |
